A word on the EC50: it is the midpoint of the concentration-response curve. What is called AC50 is the concentration giving half of the maximal activity seen. A word on the IC50: it is the concentration at which inhibition is half-maximal. Broadly, the CC50 is the concentration at which the toxic effect on the cells reaches its halfway point.

The text below walks through data of ChEMBL document CHEMBL1201862, “PubChem BioAssay data set” (2004).

Active and inactive are the calls of the source.

One test deals with Beta-galactosidase (Escherichia coli, UniProt Q8VNN2). In words: PubChem AID 485352. Format: functional.
Sequence of Beta-galactosidase (Q8VNN2 whole entry): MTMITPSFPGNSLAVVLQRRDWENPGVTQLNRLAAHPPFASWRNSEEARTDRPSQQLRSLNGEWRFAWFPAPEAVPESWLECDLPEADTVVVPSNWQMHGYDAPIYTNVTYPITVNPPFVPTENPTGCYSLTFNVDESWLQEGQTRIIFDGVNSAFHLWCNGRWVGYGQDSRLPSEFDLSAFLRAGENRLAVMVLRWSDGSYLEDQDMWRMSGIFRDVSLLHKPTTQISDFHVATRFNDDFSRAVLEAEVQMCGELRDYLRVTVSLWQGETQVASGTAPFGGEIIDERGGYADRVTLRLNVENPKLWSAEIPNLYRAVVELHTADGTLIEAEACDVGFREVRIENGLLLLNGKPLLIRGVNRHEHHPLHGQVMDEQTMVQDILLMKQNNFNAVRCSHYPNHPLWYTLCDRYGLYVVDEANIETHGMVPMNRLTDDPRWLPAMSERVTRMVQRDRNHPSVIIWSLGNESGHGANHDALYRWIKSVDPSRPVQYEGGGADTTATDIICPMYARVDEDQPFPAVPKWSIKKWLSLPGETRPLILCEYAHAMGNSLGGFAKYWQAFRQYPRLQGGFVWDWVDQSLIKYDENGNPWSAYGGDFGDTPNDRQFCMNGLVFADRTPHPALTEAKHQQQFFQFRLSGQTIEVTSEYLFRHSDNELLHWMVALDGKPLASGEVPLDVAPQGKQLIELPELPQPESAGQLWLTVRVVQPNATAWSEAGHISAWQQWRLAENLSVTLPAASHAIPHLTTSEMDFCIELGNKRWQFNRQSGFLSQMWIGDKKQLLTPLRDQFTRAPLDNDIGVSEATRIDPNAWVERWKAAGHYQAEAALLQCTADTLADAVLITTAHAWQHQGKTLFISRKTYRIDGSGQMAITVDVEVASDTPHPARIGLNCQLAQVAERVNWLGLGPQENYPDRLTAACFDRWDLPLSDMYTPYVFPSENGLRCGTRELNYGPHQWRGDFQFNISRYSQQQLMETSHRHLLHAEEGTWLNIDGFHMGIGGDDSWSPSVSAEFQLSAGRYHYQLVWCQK
A short description of test [1]: blockers of FN fibrillogenesis by fibroblasts – AH1F cells, Alexa488-FN fluorescence, cherry-picks, dose response (AID 1035475). Format: functional, cell-based.
A short description of test [2]: viability loss in HEK293 kidney cells – cell-based, cherry-picks, set 5, cytotoxicity control, dose response (AID 1053117). Format: functional.
The subject of another test is CHO. The test can be described thus: CHO cell viability loss, potency – luminescence, cytotoxicity control for TLR9-MyD88 binding inhibitor project, dose response (AID 588339).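 Further: CHO cells stably coexpressing TLR9 and MyD88 fusions from primary screen; compound exposure lasted 48 hours before viability readout.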 Type of test: functional, cell-based, hamster. As to conditions: Cricetulus griseus.
Test [3] in a line: cAMP pathway inhibition in counterscreen cell line – TR-FRET cAMP detection, counter-screen for MC4R biased antagonist project, dose response (AID 602305).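 Further: U2OS cells stimulated with forskolin near its EC80 as the cAMP inducer; potency is for inhibition of forskolin-stimulated cAMP signaling.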 Format: functional, cell-based. (A counterscreen serves to expose hits that act by an unwanted route or on another target.)
The target of test [4] is T1, Replicative DNA helicase DnaB (Mycobacterium tuberculosis, UniProt P9WMR3).
T1 sequence (P9WMR3 whole entry): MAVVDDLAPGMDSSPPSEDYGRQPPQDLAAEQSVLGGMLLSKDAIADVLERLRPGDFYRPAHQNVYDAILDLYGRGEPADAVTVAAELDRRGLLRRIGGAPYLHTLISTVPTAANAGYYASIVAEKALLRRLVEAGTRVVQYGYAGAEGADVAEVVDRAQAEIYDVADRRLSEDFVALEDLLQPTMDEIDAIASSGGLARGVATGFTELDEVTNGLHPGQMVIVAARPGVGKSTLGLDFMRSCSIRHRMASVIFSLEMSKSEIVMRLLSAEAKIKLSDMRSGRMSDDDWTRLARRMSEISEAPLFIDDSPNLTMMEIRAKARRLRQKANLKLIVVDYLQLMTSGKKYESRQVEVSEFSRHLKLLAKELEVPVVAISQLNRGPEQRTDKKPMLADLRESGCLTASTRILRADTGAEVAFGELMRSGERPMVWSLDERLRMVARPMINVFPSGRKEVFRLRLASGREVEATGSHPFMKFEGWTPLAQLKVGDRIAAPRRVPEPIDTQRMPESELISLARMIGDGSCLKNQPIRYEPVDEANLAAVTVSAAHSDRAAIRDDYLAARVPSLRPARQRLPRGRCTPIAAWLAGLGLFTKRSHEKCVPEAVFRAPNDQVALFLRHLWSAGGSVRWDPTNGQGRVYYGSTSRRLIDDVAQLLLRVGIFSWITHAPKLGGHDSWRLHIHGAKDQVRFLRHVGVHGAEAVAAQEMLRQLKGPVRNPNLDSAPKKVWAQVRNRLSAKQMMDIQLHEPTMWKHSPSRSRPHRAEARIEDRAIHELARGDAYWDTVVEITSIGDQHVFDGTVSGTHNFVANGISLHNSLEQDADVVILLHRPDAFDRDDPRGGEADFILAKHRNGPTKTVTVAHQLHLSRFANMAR
The test can be described thus: DnaB intein splicing inhibitors, dose response, biochemical, cell-free fluorescence (AID 449749). Type of test: functional.

Test [5] can be described thus: general cell-killing toxicity readout – plate reader, dry powder samples, cytotoxicity control for PAX8 inhibitor project, dose response (AID 743021). Type of test: functional, cell-based.
In a further test the target is Paired box protein Pax-8 (Homo sapiens, UniProt Q06710). The test can be described thus: PAX8 transcriptional activity inhibition in RMG-I – RMG-I cells, luciferase, cherry-pick, dose response (AID 687027).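 Further: luciferase reporter driven by Pax8 target thyroperoxidase promoter measured by SteadyGlo luminescence.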 Format: functional, cell-based.
Sequence of Paired box protein Pax-8 (Q06710 whole entry): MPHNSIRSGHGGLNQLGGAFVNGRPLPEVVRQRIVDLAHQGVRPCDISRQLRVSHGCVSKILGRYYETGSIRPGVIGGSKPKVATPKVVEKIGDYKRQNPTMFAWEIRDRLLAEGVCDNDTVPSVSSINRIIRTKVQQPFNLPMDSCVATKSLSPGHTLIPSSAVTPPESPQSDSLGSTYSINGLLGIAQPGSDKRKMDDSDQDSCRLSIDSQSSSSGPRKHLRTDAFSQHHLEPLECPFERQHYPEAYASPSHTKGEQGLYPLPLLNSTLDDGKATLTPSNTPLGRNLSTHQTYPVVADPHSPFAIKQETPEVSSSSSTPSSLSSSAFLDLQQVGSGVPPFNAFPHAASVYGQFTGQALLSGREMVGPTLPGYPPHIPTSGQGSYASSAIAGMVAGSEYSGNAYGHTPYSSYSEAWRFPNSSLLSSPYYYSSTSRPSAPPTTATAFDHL
In test [6] the target is T2, Heat shock factor protein 1 (Mus musculus, UniProt P38532).
T2 sequence (P38532 whole entry): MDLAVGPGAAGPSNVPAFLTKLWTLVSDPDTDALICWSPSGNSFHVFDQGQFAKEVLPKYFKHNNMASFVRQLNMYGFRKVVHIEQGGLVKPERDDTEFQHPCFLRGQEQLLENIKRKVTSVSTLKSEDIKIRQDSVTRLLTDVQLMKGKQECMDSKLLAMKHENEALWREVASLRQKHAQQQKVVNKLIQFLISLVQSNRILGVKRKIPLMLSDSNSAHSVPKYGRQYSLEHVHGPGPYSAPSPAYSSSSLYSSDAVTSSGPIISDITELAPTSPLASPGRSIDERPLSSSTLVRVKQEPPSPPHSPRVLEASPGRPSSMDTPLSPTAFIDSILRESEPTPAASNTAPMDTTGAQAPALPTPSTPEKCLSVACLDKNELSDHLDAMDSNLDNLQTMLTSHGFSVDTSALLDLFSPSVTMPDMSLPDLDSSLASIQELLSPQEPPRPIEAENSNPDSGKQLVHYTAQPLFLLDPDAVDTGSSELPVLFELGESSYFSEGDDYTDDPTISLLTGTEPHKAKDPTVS
In words: decrease of HSF1-responsive luciferase luminescence – cell-based, NIH3T3, dose retest, confirmation (AID 2382).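 Further: NIH3T3 fibroblasts with HSF1-driven luciferase reporter stressed by proteasome inhibitor MG132; luminescence from HSF1-driven luciferase expression after 8 hours of MG132 stress.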 Type of test: functional.

Test [7] concerns the target T3, Type-1 angiotensin II receptor (Homo sapiens, UniProt P30556).
T3 sequence (P30556 whole entry): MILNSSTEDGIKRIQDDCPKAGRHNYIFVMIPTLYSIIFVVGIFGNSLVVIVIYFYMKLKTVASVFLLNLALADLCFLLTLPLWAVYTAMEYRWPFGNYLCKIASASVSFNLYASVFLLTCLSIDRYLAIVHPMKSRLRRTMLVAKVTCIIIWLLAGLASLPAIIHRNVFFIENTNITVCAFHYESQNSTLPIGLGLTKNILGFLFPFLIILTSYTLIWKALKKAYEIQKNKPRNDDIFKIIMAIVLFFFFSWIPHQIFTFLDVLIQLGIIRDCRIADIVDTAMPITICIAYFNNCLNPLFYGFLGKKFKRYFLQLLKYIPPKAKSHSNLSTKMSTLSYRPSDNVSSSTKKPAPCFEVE
The test can be described thus: antagonism of angiotensin II type 1 receptor – cell-based, uHTS hits, selectivity assay for APJ receptor antagonist project, dose response (AID 463214).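 Further: antagonist potency against angiotensin II stimulated AT1 response.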 Format: functional.

A short description of test [8]: viability loss in HepG2 hepatoma cells – cell-based, cherry-picks, set 5, cytotoxicity control, dose response (AID 1053118). Type of test: functional.
In a further test the test system is INS1. In words: INS-1E survival protection against cytokine death – cell-based, luminescence, retest, dose response (AID 449756).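 Further: cell death triggered by IL-1 beta plus TNF-alpha plus IFN-gamma mixture; protective hits raise ATP signal compared with cytokine alone wells.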 Type of test: functional. As to conditions: Rattus norvegicus.
In a further test the target is Beta Lactamase (Pseudomonas aeruginosa, UniProt Q932Y6). In words: BLA reporter interference, concentration series – BLA reporter cells, FRET fluorescence, artefact control for TLR9-MyD88 binding inhibitor project, dose response (AID 588341).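 Further: cell based assay in CHO-K1 cells stably expressing beta-lactamase.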 Type of test: cell-based.
Sequence of Beta Lactamase (Q932Y6 whole entry): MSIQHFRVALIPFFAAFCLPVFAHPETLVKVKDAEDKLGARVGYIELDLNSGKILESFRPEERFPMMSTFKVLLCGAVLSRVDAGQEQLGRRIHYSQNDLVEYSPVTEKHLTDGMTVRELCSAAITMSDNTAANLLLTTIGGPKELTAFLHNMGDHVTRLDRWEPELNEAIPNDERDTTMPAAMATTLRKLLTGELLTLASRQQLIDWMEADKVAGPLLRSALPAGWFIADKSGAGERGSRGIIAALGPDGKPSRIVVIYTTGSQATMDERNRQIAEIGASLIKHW
Test [9] is described as follows: Trypanosoma cruzi growth suppression in host cells – NIH3T3 host cells, beta-gal luminescence, confirmation (AID 2044).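 Further: intracellular parasites grown in NIH/3T3 mouse fibroblasts as host cells; luminescent beta-galactosidase reporter signal from transgenic T. cruzi replicating inside host cells; inhibitors lower the luminescence signal.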 Format: functional, cell-based.
The target of a further test is Melanocortin receptor 4 (Homo sapiens, UniProt P32245). In words: inhibitors of MC4R cAMP signaling – cell-based, TR-FRET, biased antagonists, dose response (AID 602298).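 Further: antagonist potency against agonist-stimulated cAMP production.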 Format: functional.
Sequence of Melanocortin receptor 4 (P32245 whole entry): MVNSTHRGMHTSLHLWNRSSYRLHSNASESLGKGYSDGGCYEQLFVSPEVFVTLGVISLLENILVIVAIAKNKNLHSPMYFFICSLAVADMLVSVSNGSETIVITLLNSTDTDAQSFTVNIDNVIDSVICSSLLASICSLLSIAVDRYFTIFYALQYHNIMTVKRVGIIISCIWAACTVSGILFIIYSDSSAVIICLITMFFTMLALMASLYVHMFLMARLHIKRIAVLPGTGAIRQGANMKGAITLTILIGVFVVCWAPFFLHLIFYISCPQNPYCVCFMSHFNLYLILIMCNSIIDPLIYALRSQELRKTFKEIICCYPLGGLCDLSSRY
A short description of test [10]: THP-1 cell cytotoxicity, dose response, cytotoxicity control for non-replicating M. tuberculosis project (AID 489025). Type of test: functional.
The next test concerns the target T4, Protein RecA (Mycobacterium tuberculosis, UniProt P9WHJ3).
T4 sequence (P9WHJ3 whole entry): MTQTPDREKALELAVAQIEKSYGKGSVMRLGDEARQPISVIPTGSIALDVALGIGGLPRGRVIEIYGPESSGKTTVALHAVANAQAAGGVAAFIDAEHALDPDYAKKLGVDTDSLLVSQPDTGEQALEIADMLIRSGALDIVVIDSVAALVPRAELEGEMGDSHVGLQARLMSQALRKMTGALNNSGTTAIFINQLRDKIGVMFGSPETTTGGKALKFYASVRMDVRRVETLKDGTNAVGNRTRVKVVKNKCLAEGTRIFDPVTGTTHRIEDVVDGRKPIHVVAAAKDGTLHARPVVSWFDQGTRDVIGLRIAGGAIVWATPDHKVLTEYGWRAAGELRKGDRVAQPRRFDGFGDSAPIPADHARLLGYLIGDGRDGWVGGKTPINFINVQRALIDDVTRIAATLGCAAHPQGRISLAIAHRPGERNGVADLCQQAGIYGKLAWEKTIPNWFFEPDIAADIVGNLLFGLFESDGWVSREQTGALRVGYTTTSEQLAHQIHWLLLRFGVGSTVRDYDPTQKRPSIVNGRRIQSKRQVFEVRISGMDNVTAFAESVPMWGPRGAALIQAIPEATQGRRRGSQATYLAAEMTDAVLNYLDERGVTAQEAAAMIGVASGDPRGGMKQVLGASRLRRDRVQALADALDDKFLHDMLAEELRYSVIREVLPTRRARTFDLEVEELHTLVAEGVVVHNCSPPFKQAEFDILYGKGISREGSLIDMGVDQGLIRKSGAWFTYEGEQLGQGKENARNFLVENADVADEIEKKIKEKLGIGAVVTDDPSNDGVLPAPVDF
The test can be described thus: Fluorescence Cell-Free Homogeneous Dose Retest to Identify Inhibitors of RecA-Intein Splicing Activity. [Related pubchem assays (depositor defined):AID2097, AID2223, AID489010, AID492950]. Type of test: functional.

Test [11] in a line: NIH3T3 cell viability loss – ATP luminescence, mouse fibroblasts, counter-screen, dose response (AID 2010).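 Further: cells exposed to compound for about 90 hours before reading.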 Format: functional, cell-based.
In another test the target is Large T antigen (Simian virus 40, UniProt P03070). Format: functional, Betapolyomavirus macacae.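 Further: Confirmatory-stage PubChem screen for compounds that inhibit SV40 T antigen.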
Sequence of Large T antigen (P03070 whole entry): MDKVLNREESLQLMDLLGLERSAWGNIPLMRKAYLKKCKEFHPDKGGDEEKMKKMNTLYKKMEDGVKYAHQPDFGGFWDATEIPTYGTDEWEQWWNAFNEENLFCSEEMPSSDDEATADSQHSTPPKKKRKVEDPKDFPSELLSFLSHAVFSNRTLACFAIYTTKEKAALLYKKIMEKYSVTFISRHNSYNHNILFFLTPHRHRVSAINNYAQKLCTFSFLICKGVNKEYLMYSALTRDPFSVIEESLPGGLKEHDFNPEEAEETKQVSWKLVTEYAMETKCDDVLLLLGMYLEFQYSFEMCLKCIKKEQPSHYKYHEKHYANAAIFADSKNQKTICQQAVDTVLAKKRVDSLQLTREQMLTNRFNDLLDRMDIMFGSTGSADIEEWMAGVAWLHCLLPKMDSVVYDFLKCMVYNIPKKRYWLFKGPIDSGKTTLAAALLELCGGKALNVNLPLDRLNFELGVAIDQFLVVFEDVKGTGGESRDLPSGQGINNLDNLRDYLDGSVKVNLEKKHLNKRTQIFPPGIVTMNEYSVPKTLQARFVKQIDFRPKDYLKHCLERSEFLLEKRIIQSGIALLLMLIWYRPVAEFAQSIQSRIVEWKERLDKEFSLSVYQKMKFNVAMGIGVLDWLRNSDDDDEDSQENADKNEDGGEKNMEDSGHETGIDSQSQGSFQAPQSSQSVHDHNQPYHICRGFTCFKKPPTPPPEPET
For test [12], the target named is ATP-dependent molecular chaperone HSP82 (Candida albicans (strain WO-1) (Yeast), UniProt C4YTQ8). In words: steroid-induced GRE reporter decrease in yeast – S. cerevisiae, luminescence, Hsp90 inhibitor project, dose response (AID 2400).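 Further: beta-galactosidase luminescence from glucocorticoid response element reporter as proxy for Hsp90 function; inhibitor potency where signal loss means Hsp90 inhibition.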 Type of test: functional, cell-based.
Sequence of ATP-dependent molecular chaperone HSP82 (C4YTQ8 whole entry): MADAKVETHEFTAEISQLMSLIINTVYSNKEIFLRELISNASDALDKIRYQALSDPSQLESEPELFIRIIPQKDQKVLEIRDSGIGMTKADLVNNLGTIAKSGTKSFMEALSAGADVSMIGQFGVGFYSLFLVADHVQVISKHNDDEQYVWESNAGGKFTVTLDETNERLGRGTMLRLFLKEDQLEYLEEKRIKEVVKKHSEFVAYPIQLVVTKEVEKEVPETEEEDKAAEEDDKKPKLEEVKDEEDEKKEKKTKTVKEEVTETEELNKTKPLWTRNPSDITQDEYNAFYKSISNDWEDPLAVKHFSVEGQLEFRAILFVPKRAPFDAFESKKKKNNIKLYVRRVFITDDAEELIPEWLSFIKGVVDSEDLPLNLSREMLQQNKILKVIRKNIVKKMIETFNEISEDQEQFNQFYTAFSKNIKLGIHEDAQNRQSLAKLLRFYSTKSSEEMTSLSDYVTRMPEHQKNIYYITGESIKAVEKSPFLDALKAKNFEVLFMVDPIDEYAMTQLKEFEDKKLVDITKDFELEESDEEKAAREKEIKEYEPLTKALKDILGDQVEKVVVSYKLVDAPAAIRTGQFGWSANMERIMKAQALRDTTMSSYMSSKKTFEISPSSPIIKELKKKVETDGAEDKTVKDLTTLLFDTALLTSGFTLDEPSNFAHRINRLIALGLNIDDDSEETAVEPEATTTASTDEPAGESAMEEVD
Test [13] concerns the target T5, Serine/threonine-protein phosphatase (Candida dubliniensis (strain CD36 / CBS 7987 / NCPF 3949 / NRRLY-17841) (Yeast), UniProt B9W6M3).
T5 sequence (B9W6M3 whole entry): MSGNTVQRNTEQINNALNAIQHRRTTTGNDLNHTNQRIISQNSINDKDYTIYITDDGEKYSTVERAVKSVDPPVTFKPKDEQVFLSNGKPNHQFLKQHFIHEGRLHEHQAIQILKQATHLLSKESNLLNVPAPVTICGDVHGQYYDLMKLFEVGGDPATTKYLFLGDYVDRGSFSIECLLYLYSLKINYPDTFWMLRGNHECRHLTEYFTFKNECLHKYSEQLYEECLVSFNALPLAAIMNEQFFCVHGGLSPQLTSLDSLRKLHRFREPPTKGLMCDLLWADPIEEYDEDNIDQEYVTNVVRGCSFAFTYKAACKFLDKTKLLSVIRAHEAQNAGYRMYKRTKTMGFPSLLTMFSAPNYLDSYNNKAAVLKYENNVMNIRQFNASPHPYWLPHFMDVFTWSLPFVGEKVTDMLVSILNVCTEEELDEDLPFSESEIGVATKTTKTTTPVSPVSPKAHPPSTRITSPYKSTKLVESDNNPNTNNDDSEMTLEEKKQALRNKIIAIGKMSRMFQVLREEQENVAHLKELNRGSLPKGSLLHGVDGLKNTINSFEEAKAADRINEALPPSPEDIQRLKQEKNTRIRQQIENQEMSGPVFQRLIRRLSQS
The test can be described thus: blockers of CaCl2-induced CDRE-lacZ signaling – S. cerevisiae, luminescence, secondary, dose response (AID 2388).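 Further: yeast reporter cells carrying a calcineurin-responsive lacZ construct stimulated with calcium chloride; luminescent beta-galactosidase reporter signal in whole cells rather than isolated phosphatase activity; potency for inhibition where a drop in reporter signal means calcineurin blockade.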 Type of test: functional, cell-based.

Test [14] addresses 1-phosphatidylinositol 4,5-bisphosphate phosphodiesterase beta-3 (Homo sapiens, UniProt Q01970). The test can be described thus: Fluorescence-based biochemical high throughput dose response assay to identify inhibitors of phospholipase C isozymes (PLC-B3).
Test [15] addresses 1-phosphatidylinositol 4,5-bisphosphate phosphodiesterase gamma-1 (Homo sapiens, UniProt P19174). The test can be described thus: Counterscreen for inhibitors of phospholipase C isozymes (PLC-B3): Fluorescence-based biochemical high throughput dose response assay to identify inhibitors of phospholipase C isozymes (PLC-gamma1).
Test [16] deals with Heat shock protein HSP 90-alpha (Homo sapiens, UniProt P07900). Format: functional, organism-based.
Test [17] can be described thus: NIH-3T3 fibroblast cytotoxicity, dose response, cytotoxicity control, cell-based, fluorescence, Alamar Blue, secondary assay (AID 2327).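 Further: NIH-3T3 mouse fibroblasts cultured with fluconazole at 8 µg/mL.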 Type of test: functional. On the technique in general: Alamar Blue is a resazurin reagent that responds to reducing activity.
Test [18] in a line: fluconazole-exposed Candida albicans growth modulators – fluorescence, retest, confirmation (AID 2467). Format: functional, cell-based.

Sequence of 1-phosphatidylinositol 4,5-bisphosphate phosphodiesterase gamma-1 (P19174 whole entry): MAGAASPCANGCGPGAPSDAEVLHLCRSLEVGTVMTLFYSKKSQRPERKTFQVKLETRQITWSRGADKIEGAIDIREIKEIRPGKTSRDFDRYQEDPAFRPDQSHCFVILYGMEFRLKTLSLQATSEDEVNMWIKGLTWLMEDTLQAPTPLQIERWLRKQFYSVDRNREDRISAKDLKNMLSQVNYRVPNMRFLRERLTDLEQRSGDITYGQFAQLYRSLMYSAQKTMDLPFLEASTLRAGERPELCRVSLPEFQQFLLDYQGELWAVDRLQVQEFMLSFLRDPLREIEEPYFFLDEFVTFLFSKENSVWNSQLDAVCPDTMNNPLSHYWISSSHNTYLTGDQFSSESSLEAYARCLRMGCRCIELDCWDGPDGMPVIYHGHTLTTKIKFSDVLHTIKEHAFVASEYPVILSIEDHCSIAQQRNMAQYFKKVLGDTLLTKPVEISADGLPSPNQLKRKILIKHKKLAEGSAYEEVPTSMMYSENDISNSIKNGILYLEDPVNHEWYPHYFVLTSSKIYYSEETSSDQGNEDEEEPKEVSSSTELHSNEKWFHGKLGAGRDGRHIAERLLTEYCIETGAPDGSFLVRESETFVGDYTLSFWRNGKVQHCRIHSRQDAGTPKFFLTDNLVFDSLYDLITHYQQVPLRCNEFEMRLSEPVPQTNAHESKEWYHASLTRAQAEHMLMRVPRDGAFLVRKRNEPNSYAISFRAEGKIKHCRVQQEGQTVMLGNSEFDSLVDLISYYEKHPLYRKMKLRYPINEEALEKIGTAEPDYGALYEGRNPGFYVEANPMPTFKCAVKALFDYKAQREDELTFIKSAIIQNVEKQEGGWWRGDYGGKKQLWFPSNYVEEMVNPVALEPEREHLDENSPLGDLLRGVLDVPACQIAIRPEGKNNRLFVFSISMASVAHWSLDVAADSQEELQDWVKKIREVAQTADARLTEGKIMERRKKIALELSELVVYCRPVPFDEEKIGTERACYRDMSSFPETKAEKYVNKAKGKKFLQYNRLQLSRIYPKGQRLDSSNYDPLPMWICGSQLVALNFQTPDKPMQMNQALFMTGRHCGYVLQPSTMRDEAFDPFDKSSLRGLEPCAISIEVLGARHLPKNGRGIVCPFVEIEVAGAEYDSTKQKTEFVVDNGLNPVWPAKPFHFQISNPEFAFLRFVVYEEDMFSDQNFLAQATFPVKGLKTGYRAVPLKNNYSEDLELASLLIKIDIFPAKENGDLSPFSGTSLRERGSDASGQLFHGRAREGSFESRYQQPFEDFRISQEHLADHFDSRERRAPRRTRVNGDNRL

In the case of `CCS(=O)(=O)c1ncc(Cl)c(C(=O)Nc2ccc(S(=O)(=O)N3CCC(C)CC3)cc2)n1`, the EC50 was > 40 µM (inactive) at Beta-galactosidase; 4.04 µM (active) in [6]; 1.72 µM (active) in test [9]; 0.889 µM (active) on Protein RecA; 4.05 µM (active) in test [11]. Also, the AC50 was 5.39 µM (active) in test [1]; 9.52 µM (active) in [2]; 1.13 µM (active) in [4]; 29.3 µM (active) in test [5]; 3.45 µM (active) at Paired box protein Pax-8; 7.65 µM (active) in test [8]. Moreover, the AC50 in the test on INS1 is 4.66 µM (active). The concentration for half-maximal inhibition (IC50) in the test with CHO is 1.81 µM (active); in test [3] it was > 64.6 µM (inactive); in [7], 6.11 µM (active); at Beta Lactamase, 8.61 µM (active); at Melanocortin receptor 4, > 64.6 µM (inactive); at Large T antigen, 52.5 µM (active). The cytotoxic concentration (CC50) in [10] was 34.7 µM (active).
With `N=C(Cc1ccc(Cl)c(Cl)c1)NOC(=O)c1cccs1`, the 50% effective concentration (EC50) in test [12] was 11.6 µM (active); in [13] it was > 180 µM (inactive); in test [17], > 160 µM (inconclusive); in test [18], 0.376 µM (active). Moreover, the IC50 in test [14] and in [15] was > 122 µM (inactive) in each case. Also, the half-maximal activity concentration (AC50) in test [16] is 3.01 µM (active).
